Patent publication US7902367B2, “Cyclic amino benzoic acid derivative” (Kyorin Pharmaceutical Co., Ltd., priority 2004, dated 2011)

target: T1, human PPARα (Homo sapiens, UniProt Q07869); experiment: Activation of transcription of human PPARα (Gal4-PPARα LBD luciferase reporter assay in CHO-K1 cells); format: cell-based; conditions: CHO-K1 cells cotransfected with Gal4 DNA-binding domain/human PPARα ligand-binding domain receptor plasmid, firefly luciferase reporter and renilla internal standard; 20 hours at 37° C.
T1 construct: expressed in transfected cells; host or cells: CHO-K1 cells
T1 sequence (Q07869 239-466 limits assumed): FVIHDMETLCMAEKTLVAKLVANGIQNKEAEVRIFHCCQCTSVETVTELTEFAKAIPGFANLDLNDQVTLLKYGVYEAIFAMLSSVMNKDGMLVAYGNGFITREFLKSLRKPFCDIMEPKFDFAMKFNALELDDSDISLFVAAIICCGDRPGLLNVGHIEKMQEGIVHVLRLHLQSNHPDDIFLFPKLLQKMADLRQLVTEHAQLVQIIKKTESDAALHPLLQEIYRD
Source text: Activation of Transcription of Human Peroxisome Proliferator-Activated Receptor (PPAR) α
CHO-K1 cells cultured in Ham's F12 medium supplemented with 10% fetal calf serum were cotransfected with the following plasmids: A receptor plasmid encoding a fusion protein consisting of the DNA-binding domain of yeast transcription factor Gal4 fused to the ligand-binding domain of human PPARα (Biochemistry, 1993, 32, 5598), a reporter plasmid (STRATAGENE, firefly luciferase reporter plasmid), and a renilla luciferase plasmid for internal standard (Promega). The cotransfection was performed over a 2-hour period by using Lipofectamine (INVITROGEN) in the absence of serum. Subsequently, a test compound was added in Ham's F12 medium supplemented with 10% defatted bovine serum. The cells were then incubated at 37° C. for 20 hours. The activity of each luciferase was then determined and corrected for internal standard.

| EC50 | Compound |
| --- | --- |
| 970 nM | Cc1nc(-c2ccc(Cl)cc2)sc1C(=O)NCC1CCCN(c2cccc(C(=O)O)c2)C1 (stereo not shown) [Example 19] |
| 65 nM | Cc1nc(-c2ccc(Cl)cc2)sc1C(=O)NCC1CCCN(c2ccccc2C(=O)O)C1 (stereo not shown) [Example 18, 2-[3-[[2-(4-Chlorophenyl)-4-methylthiazol-5-yl]carbonylaminomethyl]piperidin-1-yl]benzoic acid] |
| 560 nM | Cc1nc(-c2ccc(Cl)cc2)sc1COC1CCCN(c2cccc(C(=O)O)c2)C1 (stereo not shown) [Example 25] |
| 1540 nM | Cc1nc(-c2ccc(Cl)cc2)sc1COCC1CCCN(c2cccc(C(=O)O)c2)C1 (stereo not shown) [Example 24] |
| 1360 nM | Cc1nc(-c2ccc(Cl)cc2)sc1CNC(=O)C1CCCN(c2ccccc2C(=O)O)C1 (stereo not shown) [Example 20] |
| 160 nM | Cc1nc(-c2ccc(Cl)cc2)sc1COCC1CCCN(c2ccccc2C(=O)O)C1 (stereo not shown) [Example 22] |
| 20 nM | Cc1nc(-c2ccc(Cl)cc2)sc1C(=O)NC1CCCN(c2cccc(C(=O)O)c2)C1 (stereo not shown) [Example 32] |
